Assays:
[1] = system: PAX2-2A-nGFP/POU4F3-2A-ntdTomato hESC-derived aggregates; assay: derivation of POU4F3+ hair cells (POU4F3-ntdTomato reporter); format: cell-based, human
Description: To build a PAX2-2A-nGFP/POU4F3-2A-ntdTomato multiplex reporter cell line, the POU4F3-2A-ntdTomato knockin CRISPR was performed on the PAX2-2A-nGFP genetic background. The POU4F3-2A-tdTomato-nls-bGH polyA-frt-PGK-Puro-pA-frt donor plasmid was constructed by connecting the following DNA fragments via Gibson assembly: Two 1 kb homology arms flanking the POU4F3 stop codon amplified from WA25 genomic DNA, 2A-tdTomato gBlock DNA, nls-stop-bGH pA gBlock DNA, frt-PGK-Puro-frt gBlock DNA (IDT), and a linearized pUC19 backbone. The completed donor plasmid was transfected into the PAX2-2A-nGFP parental hES cell line along with a ribonucleoprotein complex composed of a synthetic sgRNA (5′-[…]-3′ (SEQ ID NO: 30)) (Synthego) targeting the POU4F3 stop codon locus, and a high fidelity Cas9 protein (HiFi Cas9 v3, IDT). The transfection was also performed with a 4D Nucleofector (Lonza) using the P3 Primary Cell 4D-Nucleofector X kit and Program CB-150. After nucleofection, cells were plated in E8fn medium containing 1× RevitaCell (Thermo Fisher) and 1 μM of Scr7 (Xcessbio). 0.5 μg/mL puromycin selection was performed for 9 days starting from 48 h post-nucleofection. The frt-flanked PGK-Puro cassette was removed via FLPo transfection (Addgene #13793). Clonal cell line isolation and genotyping procedures were the same as PAX2-2A-nGFP CRISPR. […]

[2] = system: hair cells in hESC-derived inner ear organoids; assay: PRESTIN immunohistochemistry of hair cells in hESC-derived inner ear organoids; format: cell-based, human; details: for PRESTIN expression / number of Prestin positive HCs: 250 ng/ml thyroxine, about day 50 to about day 100
Description: PAX2-2A-nGFP/POU4F3-2A-ntdTomat hESCs (passages 22-50) were maintained and passaged in Essential 8 Flex Medium (Thermo Fisher, A2858501) supplemented with 100 μg/ml Normocin (E8fn) on recombinant human Vitronectin-N(Thermo Fisher, A14700)-coated 6-well plates. Human inner ear organoids were derived from hESCs based on the inventors' previous protocol 8.10 with major modifications. Briefly, hESCs were dissociated with StemPro Accutase (Thermo Fisher, A1110501) and distributed at 3500 cells per well onto low-adhesion 96-well U-bottom plates in 100 μL E8fn containing 20 μM Y-27632 (Stemgent, 04-0012-02) and forcibly aggregated at 120 g for 5 minutes. 100 μL of E8fn was added to each well after >4 h of incubation. Induction of non-neural epithelium occurred following 48 h of aggregation, marking differentiation day 0, as follows: aggregates were washed extensively in DMEM:F12 with HEPES buffer (DFH) (Thermo Fisher, 11320033) and transferred to new 96-well U-bottom plates in 100 μL of E6 medium (Thermo Fisher, A1516401) with Normocin (E6n) containing 4 ng mL^−1 FGF-2 (StemCell Technologies, 780003), 10 μM SB-431542 (Stemgent, 04-0010-05), and 2% growth factor reduced (GFR) Matrigel (Corning, 354230). On day 3 of differentiation, 25 μL of E6n containing 50 ng/ml FGF-2 and 200 nM LDN-193189 (Stemgent, 04-0074-02) was added to each well. Culture medium was changed on days 7 and 9 with Eon containing 3 μM CHIR 99021 (Reprocell, 04-0004-10), 200 nM LDN, and 50 ng/mL FGF-2. On day 11, aggregates were washed and transferred to a Nunc Delta surface 6-well culture dish in Organoid Maturation Medium (OMM) containing 1% GFR Matrigel and 3 μM CHIR99021. OMM consists of a 50:50 mixture of Advanced DMEM:F12 (Thermo Fisher, 12634028) and Neurobasal Medium (Thermo Fisher, 21103049) supplemented with 0.5×N2 Supplement (Thermo Fisher, 17502048), 0.5×B27 minus Vitamin A (Thermo Fisher, 12587010), 1× GlutaMAX (Thermo Fisher, 35050061), 0.1 mM β-Mercaptoethanol (Thermo Fisher, 21985023), and Normocin. Control cultures were maintained in OMM+3 μM CHIR99021 until day 18 with media changes on days 13 and 15, then OMM for the remainder of the culture. Treatment cultures were supplemented with 1 μM Purmorphamine (Stemgent, 04-0009) from days 13-22, and IWP-2 (Tocris, 3533) from days 18-22, with media changes on days 15,18, and 20, then maintained in OMM for the remainder of the culture.
Aggregates were fixed with 4% paraformaldehyde for 30 min at room temperature or at 4° C. overnight. […]
Treated and control samples were processed for immunostaining simultaneously using identical reagents and protocols for each comparison. […] Raw images were analysed using Nikon GI3 suite or exported in TIFF format and analysed using ImageJ. […]

For `Cl.Cl.O=S(=O)(NCCNCC=Cc1ccc(Br)cc1)c1cccc2cnccc12` [H89], which “efficacy in deriving POU4F3+ hair cells” value ([1]; 10 μM H89 alone or combined with PUR / PUR+IWP2, D102) is on record?
The value was “none of these treatments were efficacious”.

Which “PRESTIN expression / number of Prestin positive HCs” value ([2]; listed as Thyroxine) does the source give for `N[C@@H](Cc1cc(I)c(Oc2cc(I)c(O)c(I)c2)c(I)c1)C(=O)O` [T4, thyroxine] here?
Its value is “increases”.

And the “PRESTIN expression / number of Prestin positive HCs” value ([2]; listed as thyroxine)?
The value was “increased PRESTIN expression”.

And the “SOX2 expression in HCs” value ([2]; T4 treated cochlear organoid cultures)?
Its value is “downregulated”.

And the “PRESTIN+HCs” value ([2]; cochlear organoid cultures, 250 ng/ml T4 from culture day 50 until D100, read at D100)?
The value was roughly 80%.

B1: BMP-4: recombinant bone morphogenic protein applied on day 0 (protein, UniProt P12644 293-408, looked up)
Bone morphogenetic protein 4: SPKHHSQRARKKNKNCRRHSLYVDFSDVGWNDWIVAPPGYQAFYCHGDCPFPLADHLNSTNHAIVQTLVNSVNSSIPKACCVPTELSAISMLYLDEYDKVVLKNYQEMVVEGCGCR
For B1, which “proportion of POU4F3 cells” value ([1]; BMP-4 applied on day 0, read at D55) is on record?
The value was “increases”.
